Experimental data reported in PMC8992272, “Stabilities of Three Key Biological Trisulfides with Implications for Their Roles in the Release of Hydrogen Sulfide and Bioaccumulation of Sulfane Sulfur” (ACS Omega, 2022).

Assays:
[1] = Stability in water/D2O buffered at different pH values, tracked by 1H NMR; format: physicochemical
Source text: The ^1H NMR spectra of NAC and the disulfide, trisulfide, and tetrasulfide of NAC had peaks at unique values for chemical shifts and allowed for their easy characterization (Figure 3). Pure chemicals of each sulfide were synthesized and characterized by ^1H and ^13C NMR spectroscopy as well as by high-resolution mass spectroscopy. The unique chemical shifts of the peaks for the Ha and Hb/Hc protons on the sulfides allowed the integration of each sulfide to be determined.
The stability of NAC trisulfide in water buffered at pH values of 5.8, 7.4, and 9.0 was measured.
The stability of cysteine trisulfide was investigated in buffered water at pH values of 5.8, 7.0, and 9.0. […] At pH values of 5.8, 7.0, and 9.0, the cysteine trisulfide was soluble and its ^1H NMR spectra were obtained.
The stability of glutathione trisulfide was investigated at pH values of 5.8, 7.4, and 9.0 (Figure S14a). The degradation of glutathione trisulfide was more rapid at pH values of 5.8 and 7.4 than that of the trisulfides of NAC and cysteine. At an acidic pH of 5.8, 71% of glutathione trisulfide degraded after 10 days. At pH values of 7.4 and 9.0, glutathione trisulfide degraded 79 and 81%, respectively, at day 9. […] The degradation of glutathione trisulfide reached an equilibrium of approximately 20% with the disulfide due to the reaction catalyzed by amine with elemental sulfur. Rate constants and half-lives were obtained for the degradation of glutathione trisulfide at each pH value using early data points unaffected by the equilibrium. At pH values of 5.8, 7.4, and 9.0, the estimated half-lives were 6.3 days (151 h), 0.90 days (21.6 h), and 0.79 days (19.0 h), respectively (Figure S14b).
The stability of NAC tetrasulfide was investigated in D2O buffered at pH values of 5.8, 7.4, and 9.0 (Figure S16a). At a pH of 5.8, NAC tetrasulfide degraded by 13% after 9 days. At pH values of 7.4 and 9.0, the tetrasulfide degraded by 55 and 52%, respectively, after 9 days. At each pH, the degradation product was NAC trisulfide, elemental sulfur, and a small amount of NAC disulfide (<3%). […] Estimated rate constants and half-lives for the degradation of NAC tetrasulfide at each pH were obtained. At pH values of 5.8, 7.4, and 9.0, the estimated half-lives were 53.3, 7.5, and 8.2 days, respectively (Figure S16b).

[2] = Degradation in the presence of butylamine under biologically relevant conditions (37 °C, pH 7.4); format: physicochemical; conditions: pH 7.4 D2O; for degraded: 10 mM
Procedure: To investigate how amines degrade polysulfides in the body, NAC trisulfide was dissolved in pH 7.4 in D2O at a concentration of 10 mM. […] Butylamine was added and the reaction was maintained at body temperature (37 °C). Degradation was tracked using ^1H NMR spectroscopy (Figure 8).
N-Acetylcysteine trisulfide (14.4 mg, 36 μmol) was dissolved in 3.6 mL of D2O buffered to pH 7.4. Butylamine (11 μL, 110 μmol) was added and the contents were heated to 37 °C. The ^1H NMR spectra were taken periodically to track degradation.

stability ([1]; all pH values tested (abstract)): stable
degradation ([1]; water buffered at pH 5.8, 7.4 and 9.0, after 8 days): no observable degradation
degraded ([2]; after 1 h): 45%
degraded ([2]; after 2 h): 81%
degraded ([2]; after 1 day): 81%
half-life at 10 mM ([2]; D2O buffered to pH 7.4 with butylamine, early data points, read-out: estimated half-life (converted)): 46.2 min
SMILES: CC(=O)N[C@@H](CSSSC[C@H](NC(C)=O)C(=O)O)C(=O)O [NAC trisulfide, N-Acetylcysteine Trisulfide]
